Laboratory results as given in patent US20180318199A1, “Pharmaceutical Composition Having Anti-Aging Properties against High-Glucose” (TAIWAN LEADER BIOTECH CORP., priority 2017, published 2018).

Assays:
[1] = tested on: HO-1 and NQO-1; assay: Q-PCR of HO-1 and NQO-1 mRNA in HNDFs; format: cell-based, human; details: 12 h
Procedure: Therefore, it is hypothesized that ANM may upregulate anti-oxidant genes, which may suppress HG-induced ROS generation in HNDFs. In FIG. 5B and FIG. 5C, to quantify the mRNA expression levels of HO-1 and NQO-1, HNDFs are incubated with ANM (10 μM) or NAC (100 μM) in the presence or absence of HG (30 mM) for 12 h. Total RNA is extracted and subjected to Q-PCR analysis. Relative mRNA levels are normalized with β-actin mRNA. […] In contrast, as compared with the NG treatment group, […] expression levels of HO-1 and NQO-1 are observed in the HG treatment group.
As shown in the figures, to confirm a hypothesis that ANM protects HNDFs from HG-induced oxidative stress, an Nrf2 gene knockdown system using Nrf2 siRNA is developed. In FIG. 6A, HNDFs are transfected with specific siRNA against Nrf2 or control siRNA. After transfection for 24 h, cells are incubated with ANM (10 μM) in the presence of HG for 12 h. Total RNA is extracted and subjected to Q-PCR analysis to determine HO-1 and NQO-1 mRNA expression levels. […] From the data, it can be concluded that Nrf2 plays a vital role in HO-1 and NQO-1 induction even at the basal level.
Total RNA is extracted from cultured HNDFs using Trizol Reagent (Thermo Fisher Scientific). Q-PCR analysis is performed using Applied Biosystems detection instruments and software. Forward and reverse primers (10 μM), and the working solution SYBR green, is used as a PCR master mix, under the following conditions: 96° C. for 3 minutes followed by 40 cycles at 96° C. for 1 minute, 50° C. for 30 seconds and 72° C. for 90 seconds. GAPDH is used as an internal standard to control for variability in amplification because of differences in starting mRNA concentrations. The copy number of each transcript is calculated as the relative copy number normalized by GAPDH copy number.

[2] = tested on: Nrf2; assay: ARE luciferase reporter assay in HUVECs; format: cell-based, human; details: ANM 10 μM or RES 5 μM + HG 30 mM, 6 h; HG alone 0.5-fold, control 1-fold
Procedure: Cell lysates are mixed with luciferase reagents and quantified using an illuminometer. Relative ARE promoter activity is calculated by dividing the relative luciferase unit (RLU) of treated cells by RLU of untreated cells (NG). Results are expressed as mean±SEM of three independent experiments. Statistical significance is set at ^ϕP<0.05 as compared to NG vs. HG and *P<0.05 as compared to HG vs. samples.
ARE promoter activity is measured using a dual-luciferase reporter assay system (Promega, Madison, Wis.). […] Cells are then transfected with ARE plasmid (Qiagen, Hilden, Germany) using Lipofectamine 2000 (Invitrogen) and incubated for 36 h. […] The cell lysate is prepared and incubated with luciferase agents and the relative luminescence intensity is quantified using a spectrophotometer (Hidex Oy, Turku, Finland).

[3] = tested on: wild-type C. elegans; assay: C. elegans lifespan assay; format: in vivo, Caenorhabditis elegans
Procedure: It has been well documented that high glucose levels decrease the life span of C. elegans by increasing ROS formation and advance glycation end-product modification of mitochondrial proteins. Therefore, it is further investigated whether ANM has a protective effect against hyperglycemia-induced oxidative stress as well as anti-aging effects. Worms are incubated with high glucose (50 mM) with or without ANM […], and controlled for life span evaluation. In FIG. 8B, effect of ANM on the life span of C. elegans under hyperglycemic condition is examined. Age synchronized L1 larvae are transfected to NGM plates which contain HG (50 mM) with or without ANM (10 μM) and worms are developed to adulthood. The survival rate is scored everyday and is expressed as a percentage of survival. […] Results are expressed as mean±S.E.M of three independent experiments. Statistical significance is set at ^ϕP<0.05 as compared to control vs. HG, *P<0.05 as compared to HG vs. HG+sample and ̂P<0.05 as compared to control vs. samples.
Control worms are treated with 0.01% DMSO. All worms are kept 20° C. to develop adulthood. After 6 days, worms are transferred to plates containing glucose are applicable. Surviving and dead animals are counted daily (starting from the first day of adulthood) until all worms had died. […] Worms suffering from internal hatch (a defect in egg-laying) and those that crawled off the NGM plate are not included in the life-span assay. During the reproductive period, adult worms are transferred to fresh NGM plates every day during the progeny production period and then every other day thereafter. Life span assay result is obtained from three independent assays.

[4] = tested on: HUVECs; assay: MTT cell viability in HUVECs; format: cell-based, human; details: 48 h
Procedure: Please refer to FIG. 9A˜FIG. 9H, which are views showing HG-induced senescence prevented by ANM in human umbilical vein endothelial cells (HUVECs). As shown in the figures, to further delineate the protective effects of ANM on another cell system, experiments are designed to investigate the protective effect of ANM on HUVECs incubated in media containing either NG or HG alone or with ANM for 48 h. Cell viability is measured by MTT assay. […] Cell viability is determined by MTT assay. Percentage of viable cells are normalized with control cells (NG). […] In addition, in FIG. 9B, cellular senescence is determined by SA-β-gal activity assay. […] In addition, in FIG. 9C and FIG. 9D, total cell lysate is extracted and senescence-associated marker proteins including p16^INK4A, p21^CIP1 total and acetylated p53 and FoxO1 are measured by western blot analysis.
Cell viability is assessed by MTT colorimetric assay. Briefly, HNDFs (2×10^4cells/well) or HUVECs (5×10^4 cells/well) are seeded in a 24-well culture plate. […] The MTT formazan crystals are dissolved in 400 μL of DMSO and the samples are measured at 570 nm (A540) using an ELISA microplate reader (Bio-Tek Instruments, Winooski, Vt.). The percentage of cell viability (%) is calculated as (A570 of treated cells/A570 of untreated cells)×100.

C=C(CCC(C)C1CCC2C3=C(C(=O)C(O)C21C)C1(C)CCC(O)C(C)C1CC3)C(C)C(=O)O (stereo not drawn) [ANM, antcin M]
HO-1 and NQO-1 mRNA levels in HG treated groups ([1]; ANM 10 μM + HG 30 mM): further increased | HO-1 and NQO-1 expression, siNrf2-transfected cells ([1]; ANM 10 μM + HG): decrease | HO-1 and NQO-1 mRNA levels, control siRNA cells ([1]; ANM 10 μM + HG, scrambled siRNA): remarkable increase | HO-1 and NQO-1 mRNA levels, compound alone ([1]; ANM 10 μM, no HG): significantly increases | relative ARE luciferase activity in HUVECs co-incubated with HG [2]: 4.8 fold | life span of C. elegans under normal condition ([3]; ANM 10 μM or RES 438 μM vs control): significantly (P<0.026) prolongs | life span of C. elegans under hyperglycemic condition ([3]; HG 50 mM with ANM 10 μM vs HG alone): significant (P<0.0001) increase | number of viable HUVECs under HG ([4]; ANM 10 μM or RES 5 μM + HG 30 mM, HG alone 35.01%): 79.78% | cell viability of HUVECs, compound alone ([4]; ANM 10 μM or RES 5 μM): does not affect cell viability
